Results on 54 compounds are retold here after patent US20260193244A1 (Protego Biopharma, Inc., priority 2022, published 2026).

In this experiment the test system is IRE1-XBP1s (HEK293 T-REx cells stably expressing the XBP1-RLuc splicing reporter). Nature of the experiment: IRE1-XBP1s activation Assay (XBP1-RLuc splicing reporter, luminescence relative to thapsigargin, with or without IRE1 inhibitor 4μ8C). Format: cell-based. Particulars: 18 h, compound 10 μM, luminescence as percentage signal relative to thapsigargin (Tg) (500 nM, 18 h). As for the experimental part:
IRE1-XBP1s activation Assay: HEK293 T-REx cells stably expressing the XBP1-RLuc splicing reporter were treated with an IRE1-XBP1s activator provided herein (10 μM) in the presence or absence of the IRE1 active site inhibitor 4μ8C (32 μM) for 18 h. Luminescence was shown as the percentage signal relative to thapsigargin (Tg) (500 nM, 18 h).
Take `Cc1ccc(OCCN(C)C(=O)Cn2cc(N(C)C(=O)[C@@H]3CCCN(C(=O)c4ccccc4)C3)cn2)cc1` [Compound 15]: the activation at 10 µM is below 30%.

As to `Cc1ccc(OCCN(C)C(=O)Cn2cc(NC(=O)C3CCC(Oc4ccncc4)C3)cn2)cc1` (stereo not drawn) [Compound 104], the activation at 10 µM is at least 50%.

`Cc1ccc(OCCN(C)C(=O)Cn2cc(NC(=O)OC3CCCN(c4nccc(F)n4)C3)cn2)cc1` (stereo not drawn) [Compound 131, 1-(4-fluoropyrimidin-2-yl)piperidin-3-yl (1-(2-(methyl (2-(p-tolyloxy)ethyl)-amino)-2-oxoethyl)-1H-pyrazol-4-yl)carbamate] had an activation at 10 µM below 30%.

As to `O=C(CCNc1ccnc(F)n1)Nc1cnn(CC(=O)N2CCC[C@H](Oc3ccc(C(F)F)cc3)C2)c1` [Compound 179], the activation at 10 µM is at least 50%.

`Cc1ccc(C2CN(C(=O)Cn3cc(NC(=O)CCOc4ccccc4)cn3)CCN2C)cc1` (stereo not drawn) [Compound 45, N-(1-(2-(4-methyl-3-(p-tolyl)piperazin-1-yl)-2-oxoethyl)-1H-pyrazol-4-yl)-3-phenoxypropanamide] showed an activation at 10 µM below 30%.

The compound `O=C(CCOc1ccccc1)Nc1cnn(CC(=O)Nc2ccc(-n3cncn3)cc2)c1` [Compound 30] had an activation at 10 µM below 30%.

Take `Cc1ccc(O[C@H]2CCCN(C(=O)Cn3cc(NC(=O)C4COc5ccccc5O4)cn3)C2)cc1` (stereo partly drawn) [Compound 147]: the activation at 10 µM is below 30%.

In turn, `Cc1ccc(OCCN(C)C(=O)Cn2cc(NC(=O)CC3CNc4cc(F)ccc4O3)cn2)cc1` (stereo not drawn) [Compound 96, 2-(4-(2-(6-fluoro-3,4-dihydro-2H-benzo[b][1,4]oxazin-2-yl)acetamido)-1H-pyrazol-1-yl)-N-methyl-N-(2-(p-tolyloxy)ethyl)acetamide] had an activation at 10 µM of 30 to 50%.

In turn, `Cc1ccccc1OCCC(=O)Nc1cnn(CC(=O)N(C)c2ccc(Oc3ccc(C(F)(F)F)cc3)cc2)c1` [Compound 53] displayed an activation at 10 µM below 30%.

With `Cc1ccc(OCCN(C)C(=O)Cn2cc(NC(=O)C3CC(Oc4ccccn4)C3)cn2)cc1` (stereo not drawn) [Compound 140], the activation at 10 µM was at least 50%.

In turn, `Cc1ccc(O[C@H]2CCCN(C(=O)Cn3cc(NC(=O)CCOc4c(F)ccnc4C(C)C)cn3)C2)cc1` [Compound 159, (S)-3-((4-fluoro-2-isopropylpyridine-3-yl)oxy)-N-(1-(2-oxo-2-(3-(p-tolyloxy)piperidin-1-yl)ethyl)-1H-pyrazol-4-yl)propanamide] gave an activation at 10 µM of at least 50%.

`Cc1ccc(Oc2ccc(N(C)C(=O)Cn3cc(NC(=O)CCOc4cccc(C)c4)cn3)cc2)cc1` [Compound 26] displayed an activation at 10 µM below 30%.

`Cc1ccc(OCCC(=O)Nc2cnn(CC(=O)N(C)c3ccc(Oc4ccc(C)cc4)cc3)c2)cc1` [Compound 27] registered an activation at 10 µM below 30%.

With `COc1ccc(OCCC(=O)Nc2cnn(CC(=O)N3CCCCC(Oc4ccccc4)C3)c2)cc1` (stereo not drawn) [Compound 47], the activation at 10 µM is below 30%.

`Cc1ccc(OC2CCCN(C(=O)Cn3cc(NC(=O)CCOc4ccccc4)cn3)C2)cc1` (stereo not drawn) [Compound 11]: the activation at 10 µM was 30 to 50%.

As for `Cc1ccc(O[C@H]2CCCN(C(=O)Cn3cc(NC(=O)CCOc4ncncc4N)cn3)C2)cc1` [Compound 164, (S)-3-((5-aminopyrimidin-4-yl)oxy)-N-(1-(2-oxo-2-(3-(p-tolyloxy)piperidin-1-yl)ethyl)-1H-pyrazol-4-yl)propanamide], the activation at 10 µM was at least 50%.

On to `Cc1ccc(OCCN(C)C(=O)Cn2cc(N(C)C(=O)[C@@H]3CCC(=O)N(Cc4ccccc4)C3)cn2)cc1` [Compound 16], for which the activation at 10 µM is below 30%.

For the compound `Cc1ccc(OCCN(C)C(=O)Cn2cc(NC(=O)C3Oc4ccccc4O3)cn2)cc1` [Compound 128], the activation at 10 µM was below 30%.

`Cc1ccc(OC2CCCCN(C(=O)Cn3cc(NC(=O)CCNc4ccnc(F)n4)cn3)C2)cc1` (stereo not drawn) [Compound 171, 3-[(2-fluoropyrimidin-4-yl)amino]-N-[1-[2-[3-(4-methylphenoxy)azepan-1-yl]-2-oxo-ethyl]pyrazol-4-yl]propanamide] had an activation at 10 µM below 30%.

Consider `Cc1ccc(Oc2cccc(N(C)C(=O)Cn3cc(NC(=O)CCOc4ccccc4)cn3)c2)cc1` [Compound 116], for which the activation at 10 µM was below 30%.

Take `Cc1ccc(Oc2c(F)cc(N(C)C(=O)Cn3cc(NC(=O)CCOc4ccccc4)cn3)cc2F)cc1` [Compound 55]: the activation at 10 µM was below 30%.

With `O=C(CCOc1ccccc1)Nc1cnn(CC(=O)Nc2ccc(OC(F)F)cc2)c1` [Compound 114], the activation at 10 µM fell in the range of 30 to 50%.

Take `Cc1ccc(OCCN(C)C(=O)Cn2cc(NC(=O)C3COc4c(F)cccc4O3)cn2)cc1` (stereo not drawn) [Compound 129]: the activation at 10 µM was at least 50%.

`Cc1ccc(O[C@@H]2CCCN(C(=O)Cn3cc(NC(=O)CCNc4c(F)cncc4Cl)cn3)C2)cc1` [Compound 184] yielded an activation at 10 µM of at least 50%.

Regarding `CC1(Oc2ccc(Br)cc2)CCCN(C(=O)Cn2cc(NC(=O)CCOc3ccccc3F)cn2)C1` (stereo not drawn) [Compound 78], the activation at 10 µM was below 30%.

Consider `Cc1ccc(OCCN(C)C(=O)Cn2cc(NC(=O)C3CNc4ccccc4C3)cn2)cc1` (stereo not drawn) [Compound 66], for which the activation at 10 µM is below 30%.

`Cc1ccc(OCCN(C)C(=O)Cn2cc(NC(=O)OC3CCCNC3)cn2)cc1` (stereo not drawn) [Compound 206] returned an activation at 10 µM below 30%.

`Cc1ccc(OC2CCC3(C2)CN(C(=O)Cn2cc(NC(=O)CCNc4ccnc(F)n4)cn2)C3)cc1` (stereo not drawn) [Compound 175] returned an activation at 10 µM below 30%.

With `Cc1ccc(OCCN(C)C(=O)Cn2cc(NC(=O)C3CCCC(Oc4ccncc4)C3)cn2)cc1` (stereo not drawn) [Compound 101], the activation at 10 µM is below 30%.

`O=C(Nc1cnn(CC(=O)N2CCC[C@H](Oc3ccc(C(F)(F)F)cn3)C2)c1)C1CC(Oc2ccncc2)C1` (stereo partly drawn) [Compound 108]: the activation at 10 µM was below 30%.

For `Cc1ccc(OCCN(C)C(=O)Cn2cc(NC(=O)C3CCC(Oc4cccnc4)CC3)cn2)cc1` (stereo not drawn) [Compound 103], the activation at 10 µM was below 30%.

As for `COc1ncc(Cl)cc1NCCC(=O)Nc1cnn(CC(=O)N2CCC[C@H](Oc3ccc(C)cc3)C2)c1` [Compound 157], the activation at 10 µM is at least 50%.

The compound `Cc1ccc(C2CCCN(C(=O)Cn3cc(NC(=O)CCOc4ccccc4)cn3)C2)cc1` (stereo not drawn) [Compound 28] returned an activation at 10 µM below 30%.

For the compound `Cc1ccc(Oc2ccc(N(C)C(=O)Cn3cc(NC(=O)CCOc4ccccc4)cn3)cc2)cc1` [Compound 118], the activation at 10 µM is below 30%.

As to `Cc1ccc(OCCN(C)C(=O)Cn2cc(NC(=O)C3CC(Oc4ccncc4)C3)cn2)cc1` (stereo not drawn) [Compound 139, N-(1-(2-(methyl (2-(p-tolyloxy)ethyl)amino)-2-oxoethyl)-1H-pyrazol-4-yl)-3-(pyridin-4-yloxy)cyclobutane-1-carboxamide], the activation at 10 µM was at least 50%.

The compound `Cc1ccc(OCCN(C)C(=O)Cn2cc(NC(=O)C3CC(Nc4ccncc4)C3)cn2)cc1` (stereo not drawn) [Compound 135] registered an activation at 10 µM below 30%.

As for `Cc1ccc(OC2CC3(C2)CN(C(=O)Cn2cc(NC(=O)CCNc4ccnc(F)n4)cn2)C3)cc1` [Compound 181], the activation at 10 µM was below 30%.

`Cc1ccc(OCCN(C)C(=O)Cn2cc(NC(=O)C3COc4cccc(C)c4O3)cn2)cc1` (stereo not drawn) [Compound 125] returned an activation at 10 µM of 30 to 50%.

On to `Cc1ccc(OCCN(C)C(=O)Cn2cc(NC(=O)[C@@H]3CCC[C@H](Oc4ccccc4)C3)cn2)cc1` [Compound 12], for which the activation at 10 µM was below 30%.

`Cc1ccc(O[C@H]2CCCN(C(=O)Cn3cc(NC(=O)CCOc4ccc(F)cc4C)cn3)C2)cc1` [Compound 94] came in with an activation at 10 µM of 30 to 50%.

For the compound `Cc1ccc(OC2CCC23CN(C(=O)Cn2cc(NC(=O)C4COc5ccccc5O4)cn2)C3)cc1` (stereo not drawn) [Compound 197], the activation at 10 µM was below 30%.

In turn, `Cc1ccc(OCCN(C)C(=O)Cn2cc(NC(=O)COC3CCCN(c4nccc(F)n4)C3)cn2)cc1` (stereo not drawn) [Compound 132] showed an activation at 10 µM below 30%.

`Cc1ccc(OCCN(C)C(=O)Cn2cc(NC(=O)C3COc4ccccc43)cn2)cc1` (stereo not drawn) [Compound 67]: the activation at 10 µM was below 30%.

`Cc1ccc(OCCN(C)C(=O)Cn2cc(N(C)C(=O)C3CCC(Oc4ccccc4)CC3)cn2)cc1` (stereo not drawn) [Compound 17]: the activation at 10 µM is below 30%.

For the compound `Cc1ccc(O[C@H]2CCCN(C(=O)Cn3cc(NC(=O)CCNc4ccnc(F)n4)cn3)C2)cc1` [Compound 178], the activation at 10 µM is at least 50%.

For `Cc1ccc(O[C@H]2CCCN(C(=O)Cn3cc(NC(=O)C4COc5ccccc5N4)cn3)C2)cc1` (stereo partly drawn) [Compound 155], the activation at 10 µM was below 30%.

The compound `Cc1ccc(OCCN(C)C(=O)Cn2cc(NC(=O)OC3CCCN(c4ccnc(F)n4)C3)cn2)cc1` (stereo not drawn) [Compound 130, 1-(2-fluoropyrimidin-4-yl)piperidin-3-yl (1-(2-(methyl (2-(p-tolyl-oxy)ethyl)amino)-2-oxoethyl)-1H-pyrazol-4-yl)carbamate] came in with an activation at 10 µM below 30%.

With `Cc1ccc(OCCC(=O)Nc2cnn(CC(=O)N3CCCC(Oc4ccc(C)cc4)C3)c2)cc1` (stereo not drawn) [Compound 37], the activation at 10 µM lay in the range of 30 to 50%.

For `Cc1ccc(OCCN(C)C(=O)Cn2cc(NC(=O)CC3CCc4cc(F)ccc4O3)cn2)cc1` (stereo not drawn) [Compound 110], the activation at 10 µM is below 30%.

Consider `Cc1ccc(OC2CCCN(C(=O)Cn3cc(NC(=O)CCOc4ccccc4-c4ccccc4)cn3)C2)cc1` (stereo not drawn) [Compound 74], for which the activation at 10 µM is below 30%.

The compound `Cc1ccc(OCCN(C)C(=O)Cn2cc(NC(=O)C3CC(Oc4cccc(C)n4)C3)cn2)cc1` (stereo not drawn) [Compound 142] displayed an activation at 10 µM below 30%.

On to `Cc1ccc(O[C@H]2CCCN(C(=O)Cn3cc(NC(=O)[C@@H]4COc5ccccc5O4)cn3)C2)cc1` [Compound 185], for which the activation at 10 µM was below 30%.

The compound `Cc1ccc(OCCN(C)C(=O)Cn2cc(NC(=O)C3CC(Oc4ccncc4)CCO3)cn2)cc1` (stereo not drawn) [Compound 141] came in with an activation at 10 µM below 30%.

In turn, `Cc1c(F)cc(O[C@H]2CCCN(C(=O)Cn3cc(NC(=O)CCNc4ccnc(F)n4)cn3)C2)cc1F` [Compound 180] showed an activation at 10 µM of at least 50%.
